Test results: patent publication US20140056960A1, “Methods for Improving Fracture Healing and Bone Formation” (Imperial Innovations Limited, priority 2010, published 2014)
“Also recorded” adds a separate entry of the source. Read-outs that look alike come from different tables or passages of the source.

How the values were obtained:
[1] = human, in vivo, cited from earlier work
rib fracture = conditions: cited from earlier work
[2] = system: human muscle-derived stromal cells; conditions: cited from earlier work
tibial fracture [3] = test: murine tibial fracture model: callus mineralization (microCT) and histology after local administration at fracture site; format: in vivo, mouse; conditions: for fracture healing / callus mineralization: local, approx. 1 ng or 50 ng/kg (50 ng/ml, 20 microlitres PBS) at time of fracture and 24 hr later, day 28; for fracture healing / percentage callus mineralization: exogenous alarmin at fracture site days 0 and 1 (rmHMGB1 20 μL at 50 ng/ml), day 28 microCT
Description: Percentage callus mineralization was determined from the fracture site to 1 mm proximally (mean+/−SEM). FIG. 5. Dose response of exogenous TNF-α in vivo. 20 μL of PBS with rhTNF-α at the corresponding dose was injected at the fracture site at days 0 and 1 in C57BI/6 mice. At day 28, mice were harvested and limbs scanned by microCT in a blinded fashion. Percentage callus mineralization was determined from the fracture site to 1 mm proximally (threshold density of 350 mg/cm^3). * p<0.05, ** p<0.01. FIG. 7A. […] Percentage callus mineralization was determined from the fracture site to 1 mm proximally (mean+/−SEM). FIG. 18. […] C57BI6 mice were subjected to fracture model with addition of 20 μL of rmHMGB1 at 50 ng/ml at the fracture site at days 0 and 1 compared to controls. Addition of exogenous S100A8 or S100A9 or S100A8/9 had no effect, possibly because the fracture environment may already contain optimal amounts of S100 A8 or A9 proteins. All mice were harvested at day 28 and limbs scanned by microCT in a blinded fashion. Percentage callus mineralization was determined from the fracture site to 1 mm proximally (mean+/−SEM). […] Inflammation plays a vital role in early fracture repair^11,12. In murine models, TNF-α, IL-1 and IL-6 are expressed at the fracture site within 24 hours of injury^13,14. Biphasic expression of TNF-α and IL-1β appears to be linked to the initiation of fracture repair and later to endochondral maturation^14,15. In our murine model, callus mineralization at day 28 was enhanced when TNF-α, at a concentration of 50 ng/kg was injected locally following injury (day 0) and 24 hours later.

tibial fracture [4] = test: as above; format: in vivo, mouse
osteoporotic fracture = osteoporotic fracture repair in ovariectomised mice, callus mineralization by microCT; format: in vivo, mouse; conditions: for percentage callus mineralization / fracture healing: day 14, 20 μL rhTNF-α 50 ng/ml immediately post fracture and 1 day later, vs PBS
Description: FIG. 6. Addition of exogenous TNF-α accelerates osteoporotic fracture repair in vivo. 20 μL of rhTNF-α at 50 ng/ml was injected at the fracture site immediately post fracture and 1 day later. Osteoporosis was induced by ovariectomising mice 4 weeks prior to surgery. (A). At day 14, mice were harvested and limbs scanned by microCT in a blinded fashion. […] At day 28 post fracture the percentage mineralised callus volume in the three groups (normal, those that had undergone oophorectomy and oophrectomised animals treated with TNF-α) were similar. […] (B).
We have investigated the effect of adding recombinant human TNF-α at the fracture site in mice rendered osteoporotic by oophorectomy 4 weeks previously.

[5] = system: intramuscular bone-inducing implant; conditions: daily intra-peritoneal administration; cited from earlier work
bone marrow cells = test: TNF-α production by bone marrow cells from wild type, TLR-4 and MyD88 knockout mice; format: cell-based, mouse; conditions: WT, TLR-4 and MyD88 knockout bone marrow cells
Text: FIG. 11. TNF-α production by bone marrow cells from wild type (WT), TLR-4 and MyD88 knockout mice treated with murine S100A8.

PBMCs = test: TNF-α production by PBMCs (ELISA, 14 hours); format: cell-based, human; conditions: for TNF-α production by PBMCs: PBMCs 1*10^5/ml, 10% FCS, alarmin at indicated doses
Description: FIG. 10. […] (A) PBMCs at 1*10^5/ml were incubated in 10% fetal calf serum (FCS) with S100 A8 at indicated doses. […] (B) PBMCs at 1*10^5/ml were incubated in 10% FCS with S100 A8 at 0.5 μg/ml with the addition of either antibody to TLR4, TLR2 or isotype controls (not shown), or sRAGE over 14 hours. TNF-α levels were determined by ELISA.
FIG. 12. […] PBMCs at 1*10^5/ml were incubated in 10% FCS with S100 A8, S100 A9 or S100 A12 at the indicated doses over 14 hours. TNF-α levels were determined by ELISA.
FIG. 17. […] PBMCs at 1*10^5/ml were incubated in 10% FCS with HMGB1 or LPS at the indicated doses over 14 hours; TNF-α levels were determined by ELISA.

## TNF-α
[1]; sc
  adverse effect, highest doses administered repeatedly: minor local reactions
[1]
  adverse effect, highest doses administered repeatedly: clinically insignificant thrombocytopaenia
  single doses found safe: up to 400 micrograms
Rib fracture; 40 μg/kg/day
  fracture healing: (non significant) improvement in fracture healing
Rib fracture; daily intra-peritoneal 400 μg/kg
  fracture healing: impaired healing
[2]; 10 ng/ml
  effect at 10 fold increase beyond optimal range: significant diminution in effect
[2]
  migration and osteogenic differentiation of MDSC: can migrate and differentiate upon stimulation; also recorded: clear concentration dependency; also recorded: accelerates bone formation within a narrow therapeutic window and is inhibitory at high concentrations
  optimal in vitro dose: 0.1 to 1 ng/mL
Tibial fracture [3]; "high" dose of 5-100 μg/kg
  callus mineralization at day 28: significantly less callus mineralization
Tibial fracture [3]; "low" dose of 50 pg/kg
  callus mineralization at day 28: indistinguishable from the PBS only control
Tibial fracture [3]; doses of 10 pg to 1 ng at fracture site (FIG. 5)
  fracture healing compared to PBS control: significantly accelerated healing
Tibial fracture [3]
  fracture healing / callus mineralization: effective in promoting bone formation and accelerating fracture healing; also recorded: enhanced; also recorded: significantly accelerated healing of the fracture
Tibial fracture [3]; listed as rhTNF-α
  fracture healing / callus mineralization: accelerate callus mineralization
Tibial fracture [4]; 14 days post injury, local TNF-α 50 ng/kg body weight (1 ng/ml) in PBS
  histology of tibial fracture: complete bridging of the fracture site by hard callus (bone) and remodelling of the fracture callus
Osteoporotic fracture
  percentage callus mineralization / fracture healing: significantly greater
Osteoporotic fracture; listed as recombinant human TNF-α
  percentage callus mineralization / fracture healing: significantly accelerated fracture healing
Osteoporotic fracture; day 28 post fracture, normal vs oophorectomy vs oophorectomy + TNF-α
  percentage mineralised callus volume: similar
Osteoporotic fracture; rhTNF-α group vs PBS control
  3D reconstructions of fracture site: bridging of the fracture site with callus and ossification of the cartilaginous intermediary as well as remodelling of the ossified callus
[5]
  bone formation around implant: inhibited bone formation

## IL-1β: pro-inflammatory cytokine with some osteogenic activity in vitro
[2]; cytokine alone, human specimens
  bone nodule formation in vitro: does not promote bone nodule formation
[2]; human muscle-derived stromal cells
  alkaline phosphatase production: increased alkaline phosphatase production

B1: murine S100A8: murine alarmin S100A8 used on mouse bone marrow cells (protein, UniProt P27005 2-89, looked up)
Protein S100-A8: PSELEKALSNLIDVYHNYSNIQGNHHALYKNDFKKMVTTECPQFVQNINIENLFRELDINSDNAINFEEFLAMVIKVGVASHKDSHKE
Bone marrow cells
  receptor dependence of TNF-α production: largely dependent on TLR-4 receptor and absolutely dependent on MyD88

B2: HMGB1: alarmin; highly purified HMGB-1 (protein, UniProt P09429 1-215, looked up)
High mobility group protein B1: MGKGDPKKPRGKMSSYAFFVQTCREEHKKKHPDASVNFSEFSKKCSERWKTMSAKEKGKFEDMAKADKARYEREMKTYIPPKGETKKKFKDPNAPKRPPSAFFLFCSEYRPKIKGEHPGLSIGDVAKKLGEMWNNTAADDKQPYEKKAAKLKEKYEKDIAAYRAKGKPDAAKKGVVKAEKSKKKKEEEEDEEDEEDEEEEEDEEDEDEEEDDDDE
Tibial fracture [3]; 1 mg/ml at fracture site at days 0 and 1, 28 days post fracture
  fracture healing: significantly (p=0.02) accelerated healing
Tibial fracture [3]
  fracture healing / percentage callus mineralization: accelerated healing; also recorded: accelerates fracture healing
PBMCs; HMGB1 and LPS at indicated doses
  TNF-α production by PBMCs, HMGB1 with addition of LPS: synergistic effect
PBMCs
  TNF-α production by PBMCs: not pro-inflammatory in isolation in vitro
PBMCs; listed as HMGB-1
  TNF-α production by PBMCs: did not lead to TNF-α production

B3: rmHMGB1: exogenous alarmin rmHMGB1 added locally at the fracture site (protein, UniProt P63158 1-215, looked up)
High mobility group protein B1: MGKGDPKKPRGKMSSYAFFVQTCREEHKKKHPDASVNFSEFSKKCSERWKTMSAKEKGKFEDMAKADKARYEREMKTYIPPKGETKKKFKDPNAPKRPPSAFFLFCSEYRPKIKGEHPGLSIGDVAKKLGEMWNNTAADDKQPYEKKAAKLKEKYEKDIAAYRAKGKPDAAKKGVVKAEKSKKKKEEEDDEEDEEDEEEEEEEEDEDEEEDDDDE
Tibial fracture [3]
  fracture healing / percentage callus mineralization: accelerates fracture; also recorded: improves callus mineralisation

B4: recombinant murine IL-10: an anti-inflammatory cytokine (protein, UniProt P18893 19-178, looked up)
Interleukin-10: SRGQYSREDNNCTHFPVGQSHMLLELRTAFSQVKTFFQTKDQLDNILLTDSLMQDFKGYLGCQALSEMIQFYLVEVMPQAEKHGPEIKEHLNSLGEKLKTLRMRLRRCHRFLPCENKSKAVEQVKSDFNKLQDQGVYKAMNEFDIFINCIEAYMMIKMKS
Tibial fracture [4]; 14 days post fracture, administered at fracture site
  fracture healing as percentage mineralized callus volume: inhibition of fracture healing

B5: S100A9: alarmin (protein, UniProt P06702 1-114, looked up)
Protein S100-A9: MTCKMSQLERNIETIINTFHQYSVKLGHPDTLNQGEFKELVRKDLQNFLKKENKNEKVIEHIMEDLDTNADKQLSFEEFIMLMARLTWASHEKMHEGDEGPGHHHKPGLGEGTP
Tibial fracture [3]
  fracture healing / percentage callus mineralization: no effect
PBMCs
  TNF-α production by PBMCs: much lower effect than S100A8
PBMCs; listed as S100 A9
  TNF-α production by PBMCs: much less potent than S100 A8

B6: S100A8/9: alarmin (protein, UniProt P05109 1-93; P06702 1-114, looked up)
Protein S100-A8: MLTELEKALNSIIDVYHKYSLIKGNFHAVYRDDLKKLLETECPQYIRKKGADVWFKELDINTDGAVNFQEFLILVIKMGVAAHKKSHEESHKE
Protein S100-A9: MTCKMSQLERNIETIINTFHQYSVKLGHPDTLNQGEFKELVRKDLQNFLKKENKNEKVIEHIMEDLDTNADKQLSFEEFIMLMARLTWASHEKMHEGDEGPGHHHKPGLGEGTP
Tibial fracture [3]
  fracture healing / percentage callus mineralization: no effect
PBMCs
  TNF-α production by PBMCs: no activity
